Measured values as given in patent US12220440B2, “Drug composition, method for treating infection, disinfecting composition, and drug adjuvant” (priority 2022, dated 2025).
Like-named read-outs stand apart in the source and are kept apart here.

Columns and labels:
Format in all cases: cell-based
mcr-1-bearing E. coli = test: LIVE/DEAD cell viability assay, fluorescence microscopy; details: 20 μg/ml of otilonium bromide alone
Protocol: Fluorescence microscopy quantifies the number of live and dead cells and determines the degree of reduction in colistin concentration in the drug combination required for effective eradication of the test organism. […] However, in the presence of 20 μg/ml of otilonium bromide, 4 μg/ml of colistin eradicates >97% of the bacteria.

P. aeruginosa PAO1 = test: Bacterial motility on semisolid agar (migration distance)
From the text: It is believed that flagellar formation and flagellar motor rotation are driven by PMF. To study the effect of otilonium bromide on bacterial motility, P. aeruginosa, whose motility on a semisolid surface is dependent upon a functional flagellum, is reviewed. […] Gramicidin, an ionophore known for acting as PMF dissipater, is the positive control. […] For the experiments in FIG. 6a, P. aeruginosa is inoculated in the center of the semisolid agar containing otilonium bromide at the indicated concentrations, with gramicidin as the positive control. A set of 10 mM CaCl2 and no CaC2 plates are also prepared as indicated.
The migration distance is measured in cm and recorded after the inoculated plates ae incubated. The error bars represent the means and standard deviations (SDs). Statistical analysis is performed using unpaired two-tailed student t-test. .*, p<0.05, **, p<0.005, ***p<0.0005, ****p<0.00005.

[1] = tested on: A. baumannii (colistin-resistant); test: MIC, colistin-resistant A. baumannii isolates, with and without otilonium bromide; details: Acinetobacter baumannii
[2] = tested on: E. coli (colistin-resistant); test: MIC, colistin-resistant E. coli clinical isolates, with and without otilonium bromide; details: Escherichia coli, Ob alone, read-out: Ob MIC
S. Typhimurium PY01 = test: MIC, colistin-susceptible S. Typhimurium, with and without otilonium bromide; details: Salmonella enterica, Ob alone, read-out: Ob MIC
[3] = tested on: mcr-1-bearing E. coli J53; test: SYTOX Green membrane permeability staining
From the text: SYTOX™ Green (available from ThermoFisher Scientific) staining analysis assesses the membrane permeability of colistin-resistant E. coli before and after treatment with the colistin and otilonium bromide combination. SYTOX Green is a green-fluorescent nucleotide dye used to test membrane permeability and membrane integrity. Green fluorescence is detected by fluorescence spectrometer when bacterial cell integrity is destroyed and membrane permeability increases.

[4] = tested on: P. aeruginosa (colistin-susceptible); test: MIC, colistin-susceptible P. aeruginosa isolates, with and without otilonium bromide; details: Pseudomonas aeruginosa, Ob alone, read-out: Ob MIC
E. coli Bw25113 = test: MIC, colistin-susceptible E. coli, with and without otilonium bromide; details: Escherichia coli, Ob alone, read-out: Ob MIC

## CCCCCCCCOc1ccccc1C(=O)Nc1ccc(C(=O)OCC[N+](C)(CC)CC)cc1.[Br-] [Ob, Otilonium bromide]
mcr-1-bearing E. coli
  live/dead state of cells: most or all mcr-1-bearing E. coli strains were alive
P. aeruginosa PAO1; 40 μM otilonium bromide supplemented with 10 mM calcium ions
  migration distance on semisolid agar: significant increase in migration distance
P. aeruginosa PAO1; plates containing otilonium bromide, overnight incubation
  migration distance on semisolid agar: decrease in a dose-dependent manner
[1]; ATCC17978, read-out: Ob MIC
  MIC: 20 µg/mL
[1]; read-out: Ob MIC, A. baumannii ABJZ-45, colistin-resistant, Ob alone
  MIC: 20 µg/mL
[1]; read-out: Ob MIC, A. baumannii ABJZ-46, colistin-resistant, Ob alone
  MIC: 20 µg/mL
[1]; read-out: Ob MIC, A. baumannii ABJZ-50, colistin-resistant, Ob alone
  MIC: 20 µg/mL
[2]; E. coli 5, colistin-resistant
  MIC: > 64 µg/mL
[2]; E. coli 12.12.0487, colistin-resistant
  MIC: > 64 µg/mL
[2]; E. coli 101, colistin-resistant
  MIC: > 64 µg/mL
[2]; E. coli 119, colistin-resistant
  MIC: > 64 µg/mL
[2]; E. coli 812, colistin-resistant
  MIC: > 64 µg/mL
[2]; E. coli 2016.2.5 1149-1, colistin-resistant
  MIC: > 64 µg/mL
[2]; E. coli 34650, colistin-resistant
  MIC: > 64 µg/mL
[2]; E. coli CX48, colistin-resistant
  MIC: > 64 µg/mL
[2]; E. coli CX53, colistin-resistant
  MIC: > 64 µg/mL
[2]; E. coli CX116, colistin-resistant
  MIC: > 64 µg/mL
[2]; E. coli WZ2431, colistin-resistant
  MIC: > 64 µg/mL
[2]; E. coli WZ2909, colistin-resistant
  MIC: > 64 µg/mL
[2]; E. coli WZ3903, colistin-resistant
  MIC: > 64 µg/mL
[2]; E. coli WZ3906, colistin-resistant
  MIC: > 64 µg/mL
[2]; E. coli WZ3920, colistin-resistant
  MIC: > 64 µg/mL
[2]; E. coli WZ3951, colistin-resistant
  MIC: > 64 µg/mL
[2]; E. coli WZ3955, colistin-resistant
  MIC: > 64 µg/mL
[2]; E. coli X2169, colistin-resistant
  MIC: > 64 µg/mL
S. Typhimurium PY01
  MIC: > 64 µg/mL
[3]; each drug individually
  SYTOX Green fluorescence (membrane permeability): significant increase in fluorescence
[3]; otilonium bromide by itself
  ability to enhance membrane permeability, compared with colistin: significantly lower than colistin
[4]; P. aeruginosa PA01, colistin-susceptible
  MIC: > 64 µg/mL
[4]; P. aeruginosa PAER 2011-3010, colistin-susceptible
  MIC: > 64 µg/mL
[4]; P. aeruginosa PAER 2011-3252, colistin-susceptible
  MIC: > 64 µg/mL
[4]; P. aeruginosa PAER 2012-1527, colistin-susceptible
  MIC: > 64 µg/mL
[4]; P. aeruginosa PAERC 10.296, colistin-susceptible
  MIC: > 64 µg/mL
[4]; P. aeruginosa PAERC 11.2309, colistin-susceptible
  MIC: > 64 µg/mL
[4]; P. aeruginosa PAERC 11.236, colistin-susceptible
  MIC: > 64 µg/mL
[4]; P. aeruginosa PAERC 11.603, colistin-susceptible
  MIC: > 64 µg/mL
[4]; P. aeruginosa PAERC 12.1478, colistin-susceptible
  MIC: > 64 µg/mL
E. coli Bw25113
  MIC: > 64 µg/mL
